Test results published in patent US10206937B2, “Boronic acid derivatives and therapeutic uses thereof” (Qpex Biopharma, Inc., priority 2014, dated 2019).
pIC50, pKi: −log10 of the molar value.

How the values were obtained:
[1] = target: T1, NDM-1 (Klebsiella pneumoniae, UniProt C7C422); test: biochemical; conditions: cleavage of imipenem (100 uM) by NDM-1; read-out: Ki, Imipenem
[2] = target: purified class A, C and D enzymes (Escherichia coli, UniProt Q9L5C7); type: biochemical; conditions: purified CTX-M-14; nitrocefin reporter substrate
[3] = target: T2, purified class A, C and D enzymes (UniProt Q9F663); type: biochemical; conditions: read-out: Ki (KPC-2, NCF); purified KPC-2; nitrocefin reporter substrate
T2 construct: rows headed: Ki (KPC-2, NCF); other: purified KPC-2; nitrocefin reporter substrate

[4] = target: purified class A, C and D enzymes (Enterobacter cloacae, UniProt P05364); type: biochemical; conditions: purified P99/AmpC of ECL; nitrocefin reporter substrate
[5] = target: T3, purified class A, C and D enzymes (UniProt Q6XEC0); type: biochemical; conditions: read-out: Ki (OXA-48, NCF); purified OXA-48; nitrocefin reporter substrate
T3 construct: rows headed: Ki (OXA-48, NCF); other: purified OXA-48; nitrocefin reporter substrate

[6] = target: T4, purified class A, C and D enzymes (UniProt P0AD64, L31Q/G234S/E235K, species not given); type: biochemical; conditions: read-out: Ki (SHV-12, NCF); purified SHV-12; nitrocefin reporter substrate
T4 construct: Ki (SHV-12, NCF); other: purified SHV-12; nitrocefin reporter substrate
T4 sequence (P0AD64 1-286 L31Q/G234S/E235K): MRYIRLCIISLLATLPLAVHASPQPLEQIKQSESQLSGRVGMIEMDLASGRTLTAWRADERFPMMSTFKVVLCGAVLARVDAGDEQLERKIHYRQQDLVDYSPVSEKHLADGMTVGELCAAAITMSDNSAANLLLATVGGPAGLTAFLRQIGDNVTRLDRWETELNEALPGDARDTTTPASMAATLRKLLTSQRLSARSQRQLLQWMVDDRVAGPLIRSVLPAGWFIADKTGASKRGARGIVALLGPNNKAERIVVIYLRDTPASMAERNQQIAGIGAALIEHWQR

[7] = target: T1, NDM-1; test: Inhibition of purified class B carbapenemase NDM-1 (Ki, imipenem substrate); type: biochemical; conditions: NDM-1, substrate imipenem; read-out: Ki NDM-1, Imipenem
[8] = target: T5, VIM-1 (Pseudomonas aeruginosa, UniProt A0A0F7KYQ8); test: biochemical; conditions: cleavage of nitrocefin (200 uM) by VIM-1 supernatant
T5 construct: made in house; host or cells: ECM6711 strain carrying pUCP24-VIM-1 plasmid; culture supernatant used unpurified

Chain of purified class A, C and D enzymes (Enterobacter cloacae, UniProt P05364) (P05364 21-381): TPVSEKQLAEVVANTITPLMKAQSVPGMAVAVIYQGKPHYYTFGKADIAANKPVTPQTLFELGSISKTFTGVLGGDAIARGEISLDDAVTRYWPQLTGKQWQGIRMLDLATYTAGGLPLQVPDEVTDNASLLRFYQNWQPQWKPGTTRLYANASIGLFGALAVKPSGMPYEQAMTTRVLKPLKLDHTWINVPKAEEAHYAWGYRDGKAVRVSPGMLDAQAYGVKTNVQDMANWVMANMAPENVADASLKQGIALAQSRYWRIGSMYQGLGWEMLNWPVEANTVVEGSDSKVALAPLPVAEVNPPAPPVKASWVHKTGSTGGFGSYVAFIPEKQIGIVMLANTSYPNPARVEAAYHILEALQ
T1 sequence (C7C422 29-270, looked up, species assumed): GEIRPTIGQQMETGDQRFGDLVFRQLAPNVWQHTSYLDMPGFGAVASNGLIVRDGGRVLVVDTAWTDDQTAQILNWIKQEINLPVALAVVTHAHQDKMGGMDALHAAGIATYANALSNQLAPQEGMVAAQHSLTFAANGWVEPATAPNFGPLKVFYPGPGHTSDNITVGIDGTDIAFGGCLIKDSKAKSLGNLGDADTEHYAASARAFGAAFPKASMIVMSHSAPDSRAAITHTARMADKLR
Chain of purified class A, C and D enzymes (Escherichia coli, UniProt Q9L5C7) (Q9L5C7 entry or part of it): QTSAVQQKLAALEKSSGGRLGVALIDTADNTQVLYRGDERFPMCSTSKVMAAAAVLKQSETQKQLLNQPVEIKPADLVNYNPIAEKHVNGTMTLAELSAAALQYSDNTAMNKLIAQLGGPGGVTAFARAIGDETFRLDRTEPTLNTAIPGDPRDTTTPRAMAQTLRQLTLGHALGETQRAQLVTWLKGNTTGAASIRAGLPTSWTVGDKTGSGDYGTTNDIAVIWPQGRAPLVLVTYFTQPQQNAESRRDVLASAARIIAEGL

Compound | pKi [1] | Ki (CTX-M-14, NCF) [2] | pKi [3] | Ki (P99/AmpC of ECL, NCF) [4] | pKi [5] | pKi [6] | pKi [7] | pIC50 [8]
Nc1nnc(CCS[C@H]2Cc3ccc(F)c(C(=O)O)c3OB2O)s1 [Compound 50, (3R)-3-[2-(5-amino-1,3,4-thiadiazol-2-yl)ethylsulfanyl]-7-fluoro-2-hydroxy-3,4-dihydro-1,2-benzoxaborinine-8-carboxylic acid] | < 7.00 | X (Less than 0.1 μM) | > 7.00 | X (Less than 0.1 μM) | > 7.00 | > 7.00 | < 7.00 | > 6.00
Nc1nnc(S[C@H]2Cc3ccc(OCC(=O)NC4CNC4)c(C(=O)O)c3OB2O)s1 [Compound 81, (3R)-3-[(5-amino-1,3,4-thiadiazol-2-yl)sulfanyl]-7-[2-(azetidin-3-ylamino)-2-oxo-ethoxy]-2-hydroxy-3,4-dihydro-1,2-benzoxaborinine-8-carboxylic acid] | < 7.00 | X (Less than 0.1 μM) | < 6.00 | Y (0.1 μM to 1 μM) | > 7.00 | > 7.00 | < 7.00 | ≤ 6.00
COc1ccc2c(c1C(=O)O)OB(O)[C@@H](Sc1nncn1N)C2 [Compound 26, (R)-3-(4-amino-4H-1,2,4-triazol-3-ylthio)-2-hydroxy-7-methoxy-3,4-dihydro-2H-benzo[e][1,2]oxaborinine-8-carboxylic acid] | > 8.00 | X (Less than 0.1 μM) | 6.00 to 7.00 | Y (0.1 μM to 1 μM) | > 7.00 | > 7.00 | > 8.00 | > 6.00
Nc1nnc(S[C@H]2Cc3c(F)cc(F)c(C(=O)O)c3OB2O)s1 [Compound 33, (R)-3-(5-amino-1,3,4-thiadiazol-2-ylthio)-5,7-difluoro-2-hydroxy-3,4-dihydro-2H-benzo[e][1,2]oxaborinine-8-carboxylic acid] | < 7.00 | X (Less than 0.1 μM) | 6.00 to 7.00 | X (Less than 0.1 μM) | > 7.00 | > 7.00 | 7.00 to 8.00 | ≤ 6.00
COc1ccc2c(c1C(=O)O)OB(O)[C@@H](Sc1nnc(Sc3nnc(N)s3)s1)C2 [Compound 111, (3R)-3-[[5-[(5-amino-1,3,4-thiadiazol-2-yl)sulfanyl]-1,3,4-thiadiazol-2-yl]sulfanyl]-2-hydroxy-7-methoxy-3,4-dihydro-1,2-benzoxaborinine-8-carboxylic acid] | < 7.00 | X (Less than 0.1 μM) | 6.00 to 7.00 | Y (0.1 μM to 1 μM) | < 6.00 | > 7.00 | < 7.00 | > 6.00
COc1ccc2c(c1C(=O)O)OB(O)[C@@H](Sc1nccs1)C2 [Compound 47, (R)-2-hydroxy-7-methoxy-3-(thiazol-2-ylthio)-3,4-dihydro-2H-benzo[e][1,2]oxaborinine-8-carboxylic acid] | < 7.00 | X (Less than 0.1 μM) | 6.00 to 7.00 | Y (0.1 μM to 1 μM) | > 7.00 | > 7.00 | 7.00 to 8.00 | > 6.00
COc1ccc2c(c1C(=O)O)OB(O)[C@@H](Sc1nncn1C)C2 [Compound 28, (R)-2-hydroxy-7-methoxy-3-(4-methyl-4H-1,2,4-triazol-3-ylthio)-3,4-dihydro-2H-benzo[e][1,2]oxaborinine-8-carboxylic acid] | > 8.00 | X (Less than 0.1 μM) | 6.00 to 7.00 | Y (0.1 μM to 1 μM) | > 7.00 | > 7.00 | > 8.00 | > 6.00
COc1c(F)cc2c(c1C(=O)O)OB(O)[C@@H](Sc1nnc(N)s1)C2 [Compound 114, (3R)-3-[(5-amino-1,3,4-thiadiazol-2-yl)sulfanyl]-6-fluoro-2-hydroxy-7-methoxy-3,4-dihydro-1,2-benzoxaborinine-8-carboxylic acid] | 7.00 to 8.00 | X (Less than 0.1 μM) | 6.00 to 7.00 | Y (0.1 μM to 1 μM) | > 7.00 | > 7.00 | 7.00 to 8.00 | > 6.00
COc1ccc2c(c1C(=O)O)OB(O)[C@@H](Sc1nnc(SCCCN)s1)C2 [Compound 113, (3R)-3-[[5-(3-aminopropylsulfanyl)-1,3,4-thiadiazol-2-yl]sulfanyl]-2-hydroxy-7-methoxy-3,4-dihydro-1,2-benzoxaborinine-8-carboxylic acid] | > 8.00 | X (Less than 0.1 μM) | > 7.00 | X (Less than 0.1 μM) | > 7.00 | > 7.00 | > 8.00 | > 6.00
COc1ccc2c(c1C(=O)O)OB(O)[C@@H](Sc1nnc(C(F)(F)F)n1N)C2 [Compound 64, (3R)-3-[[4-amino-5-(trifluoromethyl)-1,2,4-triazol-3-yl]sulfanyl]-2-hydroxy-7-methoxy-3,4-dihydro-1,2-benzoxaborinine-8-carboxylic acid] | < 7.00 | X (Less than 0.1 μM) | 6.00 to 7.00 | Z (Greater than 1 μM) | > 7.00 | > 7.00 | < 7.00 | > 6.00
Nc1nnc(S[C@H]2Cc3ccc(OC(F)F)c(C(=O)O)c3OB2O)s1 [Compound 84, (3R)-3-[(5-amino-1,3,4-thiadiazol-2-yl)sulfanyl]-7-(difluoromethoxy)-2-hydroxy-3,4-dihydro-1,2-benzoxaborinine-8-carboxylic acid] | 7.00 to 8.00 | X (Less than 0.1 μM) | 6.00 to 7.00 | Y (0.1 μM to 1 μM) | > 7.00 | > 7.00 | 7.00 to 8.00 | > 6.00
COc1ccc2c(c1C(=O)O)OB(O)[C@@H](Sc1nnc(SC3CNC3)s1)C2 [Compound 108, (3R)-3-[[5-(azetidin-3-ylsulfanyl)-1,3,4-thiadiazol-2-yl]sulfanyl]-2-hydroxy-7-methoxy-3,4-dihydro-1,2-benzoxaborinine-8-carboxylic acid] | 7.00 to 8.00 | X (Less than 0.1 μM) | 6.00 to 7.00 | Y (0.1 μM to 1 μM) | > 7.00 | > 7.00 | 7.00 to 8.00 | > 6.00
NC(=O)COc1ccc2c(c1C(=O)O)OB(O)[C@@H](Sc1nnc(N)s1)C2 [Compound 80, (3R)-7-(2-amino-2-oxo-ethoxy)-3-[(5-amino-1,3,4-thiadiazol-2-yl)sulfanyl]-2-hydroxy-3,4-dihydro-1,2-benzoxaborinine-8-carboxylic acid] | < 7.00 | X (Less than 0.1 μM) | 6.00 to 7.00 | Y (0.1 μM to 1 μM) | > 7.00 | > 7.00 | < 7.00 | > 6.00
COc1ccc2c(c1C(=O)O)OB(O)[C@@H](Sc1nnc(NCCCN)s1)C2 [Compound 100, (3R)-3-[[5-(3-aminopropylamino)-1,3,4-thiadiazol-2-yl]sulfanyl]-2-hydroxy-7-methoxy-3,4-dihydro-1,2-benzoxaborinine-8-carboxylic acid] | > 8.00 | X (Less than 0.1 μM) | 6.00 to 7.00 | X (Less than 0.1 μM) | > 7.00 | > 7.00 | > 8.00 | > 6.00
COc1cc(OC)c(C(=O)O)c2c1C[C@H](Sc1nnc(N)s1)B(O)O2 [Compound 32, (R)-3-(5-amino-1,3,4-thiadiazol-2-ylthio)-2-hydroxy-5,7-dimethoxy-3,4-dihydro-2H-benzo[e][1,2]oxaborinine-8-carboxylic acid] | 7.00 to 8.00 | X (Less than 0.1 μM) | > 7.00 | X (Less than 0.1 μM) | > 7.00 | > 7.00 | 7.00 to 8.00 | ≤ 6.00
COc1ccc2c(c1C(=O)O)OB(O)[C@@H](Sc1nnc(CN)n1N)C2 [Compound 66, (3R)-3-[[4-amino-5-(aminomethyl)-1,2,4-triazol-3-yl]sulfanyl]-2-hydroxy-7-methoxy-3,4-dihydro-1,2-benzoxaborinine-8-carboxylic acid] | 7.00 to 8.00 | X (Less than 0.1 μM) | 6.00 to 7.00 | Z (Greater than 1 μM) | 6.00 to 7.00 | > 7.00 | 7.00 to 8.00 | > 6.00
